Assay results published in US9278982B2, “Targeting human thymidylate kinase induces DNA repair toxicity in malignant tumor cells” (NATIONAL YANG-MING UNIVERSITY, priority 2010, dated 2016).

Key:
[1] = biological target: T1, purified human thymidylate kinase (Homo sapiens, UniProt P23919); assay: NADH-coupled TMPK assay (kinetic parameters); type: biochemical; details: for Ki: 10 min pre-incubation, average of three YMU1 concentrations
T1 construct: GST (N, cleaved yes); made in house; host or cells: E. coli JM109 (pGEX-2T-hTMPK)
T1 sequence (P23919 1-212): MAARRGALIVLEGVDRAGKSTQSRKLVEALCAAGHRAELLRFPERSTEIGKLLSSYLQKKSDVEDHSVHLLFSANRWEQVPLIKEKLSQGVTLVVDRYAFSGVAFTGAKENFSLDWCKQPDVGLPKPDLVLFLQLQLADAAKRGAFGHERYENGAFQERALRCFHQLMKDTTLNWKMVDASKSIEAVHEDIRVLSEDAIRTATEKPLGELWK
Method: The inhibitory mode of YMU1 was determined by pre-incubating different concentrations of YMU1 with purified hTMPK protein and measuring initial velocity using the conventional TMPK assay.
All reactions were performed in 96-well plates in an assay volume of 100 μl. The activity of hTMPK was measured at 25° C. using a modified NADH coupled colorimetric assay as described (Agarwal et al., 1978; Miyata et al., 2003; Ostermann et al., 2003), in which purified hTMPK was added to the buffer containing 100 mM Tris-HCl, pH 7.5, 100 mM KCl, 10 mM MgCl2, 0.5 mM phosphoenol pyruvate, 0.25 mM NADH, 5 units of lactate dehydrogenase, 4 units of pyruvate kinase, 1 mM ATP, and 200 μM dTMP. The change of NADH was measured by reading the absorbance at 340 nm. One unit of TMPK activity is defined as the conversion of 1 μmole of TMP to TDP per minute.

CL-1-0 = assay: Doxorubicin sensitization, MTS viability assay; type: cell-based, human; details: doxorubicin sensitivity, YMU1 vs vehicle
Method: (§1) FIG. 16. In vitro and in vivo effect of YMU1 on doxorubicin sensitization. (A) A panel of cell lines were pre-treated with vehicle, YMU1 (compound 21), D6 (ethyl 4-(2-chloroacetyl)piperazine-1-carboxylate) or D7 (compound 28) for 3 days and were exposed to different concentration of doxorubicin for 4 h. […] The enhancement (fold) of doxorubicin sensitivity in each cell line was calculated. Data represent mean±s.d., n=3; each experiment was quadruplex. Inset indicates the IC50 value of doxorubicin in various cell lines. […] Following overnight culture, cells were refreshed with growth medium. After 14 days of culture, colonies were fixed, stained by crystal violet and counted. (C) HCT-116 p53^−/− cells were subcutaneously implanted in the right flank of Balb/c nude mice (each experimental group n=8). Arrow indicated the time of stopping drug treatment. The tumor volume was estimated as described in Methods of the Invention section. (D) After 2 weeks recovered from treatment, mice were sacrificed for tumor weight measurement. Data represent mean±s.e.m; **, P<0.01 by a two-tailed Student's t-test. (E) Ki 67 proliferation marker staining of tumor shown in left panel. Scale bar, 50 μm. (F) Model of doxorubicin sensitization by YMU1 in malignant cancer cells. Both R2/R1 and TMPK are recruited to the site of doxorubicin-induced double-strand breaks, where dATP, dGTP, dCTP, dTTP and dUTP are site-specific synthesized. Inhibition of TMPK decreases dTTP formation at DNA damage sites, causing futile DNA repair due to dUTP incorporation.
(§2) Next, various human cancer cell lines were treated with YMU1, D6 or D7 for 72 h to test the potential of TMPK inhibitor in doxorubicin sensitization. After exposure to different concentration of doxorubicin for 4 h, cells were refreshed for viability analysis after 2 days and the IC50 value for doxorubicin in each of the cell lines was determined (FIG. 16A and Table 2).
(§3) Cells plated into a 96-well plate (10^3 cells/well) were treated and cell viability was measured by MTS assay (Promega) (Cory et al., 1991). An annexin V-fluorescein isothiocyanate (FITC) apoptosis kit (Calbiochem) was used to detect apoptosis. The cell cycle analysis was performed by staining cells with propidium iodide (PI) for fluorescence-activated cell sorter (FACS) analysis with CellQuest software.

Capan1 = assay: Doxorubicin sensitization, MTS viability assay; type: cell-based, human; details: doxorubicin sensitivity, YMU1 vs vehicle
Method: as §1, §2, §3

H1299 = assay: Doxorubicin sensitization, MTS viability assay; type: cell-based, human; details: doxorubicin sensitivity, YMU1 vs vehicle
Method: as §1, §2, §3

H184B5F5/M10 = assay: Doxorubicin sensitization, MTS viability assay; type: cell-based, human; details: doxorubicin sensitivity, YMU1 vs vehicle
Method: as §1, §2, §3

HCC1037 = assay: Doxorubicin sensitization, MTS viability assay; type: cell-based, human; details: doxorubicin sensitivity, YMU1 vs vehicle
Method: as §1, §2, §3

HCT-116p53+/+ = assay: Doxorubicin sensitization, MTS viability assay; type: cell-based, human; details: doxorubicin sensitivity, YMU1 vs vehicle
Method: as §1, §2, §3

HCT-116p53−/− = assay: Doxorubicin sensitization, MTS viability assay; type: cell-based, human; details: doxorubicin sensitivity, YMU1 vs vehicle
Method: as §1, §2, §3

HMEC = assay: Doxorubicin sensitization, MTS viability assay; type: cell-based, human; details: doxorubicin sensitivity, YMU1 vs vehicle
Method: as §1, §2, §3

HREC = assay: Doxorubicin sensitization, MTS viability assay; type: cell-based, human; details: doxorubicin sensitivity, YMU1 vs vehicle
Method: as §1, §2, §3

HT-29 = assay: Doxorubicin sensitization, MTS viability assay; type: cell-based, human; details: doxorubicin sensitivity, YMU1 vs vehicle
Method: as §1, §2, §3

IMR-90 = assay: Doxorubicin sensitization, MTS viability assay; type: cell-based, human; details: doxorubicin sensitivity, YMU1 vs vehicle
Method: as §1, §2, §3

MCF-10A = assay: Doxorubicin sensitization, MTS viability assay; type: cell-based, human; details: doxorubicin sensitivity, YMU1 vs vehicle
Method: as §1, §2, §3

MDA-MB231 = assay: Doxorubicin sensitization, MTS viability assay; type: cell-based, human
Method: as §1, §2, §3

MDA-MB468 = assay: Doxorubicin sensitization, MTS viability assay; type: cell-based, human; details: doxorubicin sensitivity, YMU1 vs vehicle
Method: as §1, §2, §3

SaoS2 = assay: Doxorubicin sensitization, MTS viability assay; type: cell-based, human; details: doxorubicin sensitivity, YMU1 vs vehicle
Method: as §1, §2, §3

U2OS = assay: Doxorubicin sensitization, MTS viability assay; type: cell-based, human; details: doxorubicin sensitivity, YMU1 vs vehicle
Method: as §1, §2, §3

**Q.** Which Ki ([1]; ATP 1 mM, TMP varied 2~200 μM) does the source give for CCOC(=O)N1CCN(C(=O)Cn2sc3nc(C)cc(C)c3c2=O)CC1 [compound 21, Ethyl 4-(2-(4,6-dimethyl-3-oxoisothiazolo[5,4-b]pyridin-2(3H)-yl)acetyl) piperazine-1-carboxylate] here?
**A.** 220 ± 30 nM

**Q.** What about the Vmax ([1]; ATP varied, YMU1 0.25 μM) of the same compound?
**A.** 212.0 ± 10.3 nmol/min/mg

**Q.** What about the Vmax ([1]; ATP varied, YMU1 0.5 μM) of the same compound?
**A.** 94.8 ± 6.9 nmol/min/mg

**Q.** And the Vmax ([1]; ATP varied, YMU1 1 μM)?
**A.** 55.7 ± 1.3 nmol/min/mg

**Q.** And the Ki ([1]; TMP 200 μM, ATP varied 5~1000 μM)?
**A.** 180 ± 60 nM

**Q.** What about the Vmax ([1]; TMP varied, YMU1 0.125 μM) of the same compound?
**A.** 258.9 ± 12.4 nmol/min/mg

**Q.** And the Vmax ([1]; TMP varied, YMU1 0.25 μM)?
**A.** 180.6 ± 11.8 nmol/min/mg

**Q.** What about the Vmax ([1]; TMP varied, YMU1 0.5 μM) of the same compound?
**A.** 91.8 ± 6.4 nmol/min/mg

**Q.** What about the Enhancement fold (CL-1-0) of the same compound?
**A.** 6.0 fold

**Q.** What about the Enhancement fold (Capan1) of the same compound?
**A.** 1.0 fold

**Q.** And the Enhancement fold (H1299)?
**A.** 12.2 fold

**Q.** And the Enhancement fold (H184B5F5/M10)?
**A.** 1.7 fold

**Q.** And the Enhancement fold (HCC1037)?
**A.** 0.8 fold

**Q.** And the Enhancement fold (HCT-116p53+/+)?
**A.** 6.3 fold

**Q.** What about the Enhancement fold (HCT-116p53−/−) of the same compound?
**A.** 6.8 fold

**Q.** And the Enhancement fold (HMEC)?
**A.** 1.0 fold

**Q.** And the Enhancement fold (HREC)?
**A.** 1.0 fold

**Q.** And the Enhancement fold (HT-29)?
**A.** 3.4 fold

**Q.** And the Enhancement fold (IMR-90)?
**A.** 1.0 fold

**Q.** What about the Enhancement fold (MCF-10A) of the same compound?
**A.** 1.2 fold

**Q.** And the Enhancement fold (MDA-MB231; MDA-MB231, doxorubicin sensitivity, YMU1 vs vehicle)?
**A.** 31.0 fold

**Q.** What about the “enhancement on doxorubicin sensitization” value (MDA-MB231; MDA-MB231 cell treatment, compound at 2 μM) of the same compound?
**A.** 30 fold

**Q.** What about the Enhancement fold (MDA-MB468) of the same compound?
**A.** 27.8 fold

**Q.** What about the Enhancement fold (SaoS2) of the same compound?
**A.** 35.1 fold

**Q.** And the Enhancement fold (U2OS)?
**A.** 4.0 fold
